Measurements: PubChem BioAssay (NCI)
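Protocol summary: plate cells (96-well), add compound at 5 concentrations, incubate 48 h, interpolate endpoints linearly. GI50: concentration for 50% inhibition of growth. TGI is the concentration that stops growth completely.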

Experiments:
Assay in all cases: growth of human tumour cells (NCI), 48 h; in the data active means GI50 below about 0.43 µM; inactive means the rest
OVCAR-8 ovarian = system: OVCAR-8 ovarian
RPMI-8226 leukemia = system: RPMI-8226 leukemia
SK-OV-3 ovarian = system: SK-OV-3 ovarian
DU-145 prostate = system: DU-145 prostate
SR leukemia = system: SR leukemia
UACC-257 melanoma = system: UACC-257 melanoma
SF-295 CNS = system: SF-295 CNS
MDA-MB-231 breast = system: MDA-MB-231 breast
SNB-19 CNS = system: SNB-19 CNS
MALME-3M melanoma = system: MALME-3M melanoma
COLO 205 colon = system: COLO 205 colon
786-0 renal = system: 786-0 renal
ACHN renal = system: ACHN renal
NCI-H23 lung = system: NCI-H23 lung
HCT-15 colon = system: HCT-15 colon
SK-MEL-2 melanoma = system: SK-MEL-2 melanoma
SNB-75 CNS = system: SNB-75 CNS
K-562 leukemia = system: K-562 leukemia
HCC-2998 colon = system: HCC-2998 colon
HOP-62 NSCLC = system: HOP-62 NSCLC
IGROV1 ovarian = system: IGROV1 ovarian
SK-MEL-5 melanoma = system: SK-MEL-5 melanoma
SF-539 CNS = system: SF-539 CNS
EKVX NSCLC = system: EKVX NSCLC
CCRF-CEM leukemia = system: CCRF-CEM leukemia
SW-620 colon = system: SW-620 colon
LOX IMVI melanoma = system: LOX IMVI melanoma
HCT-116 colon = system: HCT-116 colon
A549 NSCLC = system: A549 NSCLC
SF-268 CNS = system: SF-268 CNS
SN12C renal = system: SN12C renal
NCI/ADR-RES ovarian = system: NCI/ADR-RES ovarian
HT29 colon = system: HT29 colon
NCI-H226 lung = system: NCI-H226 lung
PC-3 prostate = system: PC-3 prostate
T-47D breast = system: T-47D breast
OVCAR-4 ovarian = system: OVCAR-4 ovarian
NCI-H460 lung = system: NCI-H460 lung
MOLT-4 leukemia = system: MOLT-4 leukemia
OVCAR-5 ovarian = system: OVCAR-5 ovarian
RXF 393 renal = system: RXF 393 renal
UACC-62 melanoma = system: UACC-62 melanoma
TK-10 renal = system: TK-10 renal
M14 melanoma = system: M14 melanoma
HOP-92 NSCLC = system: HOP-92 NSCLC
HS 578T breast = system: HS 578T breast
MDA-MB-435 = system: MDA-MB-435
U251 CNS = system: U251 CNS
BT-549 breast = system: BT-549 breast
UO-31 renal = system: UO-31 renal
CAKI-1 renal = system: CAKI-1 renal
MCF7 breast = system: MCF7 breast
HL-60(TB) leukemia = system: HL-60(TB) leukemia
SK-MEL-28 melanoma = system: SK-MEL-28 melanoma
KM12 colon = system: KM12 colon
A498 renal = system: A498 renal
NCI-H522 lung = system: NCI-H522 lung

O=C(NNc1nc2cc(F)ccc2n2c(CN3CCC(O)C3)ccc12)c1cnccn1 (stereo not drawn)
active: GI50 (SR leukemia) 389 nM | GI50 (SF-295 CNS) 421 nM | GI50 (COLO 205 colon) 406 nM | GI50 (786-0 renal) 308 nM | GI50 (ACHN renal) 217 nM | GI50 (HCT-15 colon) 148 nM | GI50 (CCRF-CEM leukemia) 347 nM | GI50 (LOX IMVI melanoma) 417 nM | GI50 (HCT-116 colon) 87.6 nM | GI50 (NCI/ADR-RES ovarian) 330 nM | GI50 (NCI-H460 lung) 315 nM | GI50 (UACC-62 melanoma) 408 nM | GI50 (BT-549 breast) 327 nM | GI50 (UO-31 renal) 97.2 nM
1080 nM: TGI (M14 melanoma)
36.2 µM: TGI (ACHN renal)
> 51.3 µM: TGI (MOLT-4 leukemia)
14.7 µM: TGI (NCI-H522 lung)
> 21.8 µM: TGI (SR leukemia)
> 44.5 µM: TGI (OVCAR-8 ovarian)
9.35 µM: TGI (BT-549 breast)
> 35.1 µM: TGI (HCT-116 colon)
8.29 µM: TGI (SK-MEL-5 melanoma)
6.16 µM: TGI (LOX IMVI melanoma)
> 22.8 µM: TGI (786-0 renal)
7.53 µM: TGI (UACC-257 melanoma)
84.4 µM: TGI (UACC-62 melanoma)
6.36 µM: TGI (HL-60(TB) leukemia)
inactive: GI50 (OVCAR-8 ovarian) 439 nM | GI50 (RPMI-8226 leukemia) 747 nM | GI50 (SK-OV-3 ovarian) 858 nM | GI50 (DU-145 prostate) 981 nM | GI50 (UACC-257 melanoma) 1710 nM | GI50 (MDA-MB-231 breast) 941 nM | GI50 (SNB-19 CNS) 1000 nM | GI50 (MALME-3M melanoma) 1570 nM | GI50 (NCI-H23 lung) 1100 nM | GI50 (SK-MEL-2 melanoma) 4.09 µM | GI50 (SNB-75 CNS) 1960 nM | GI50 (K-562 leukemia) 564 nM | GI50 (HCC-2998 colon) 738 nM | GI50 (HOP-62 NSCLC) 429 nM | GI50 (IGROV1 ovarian) 679 nM | GI50 (SK-MEL-5 melanoma) 1000 nM | GI50 (SF-539 CNS) 763 nM | GI50 (EKVX NSCLC) 449 nM | GI50 (SW-620 colon) 973 nM | GI50 (A549 NSCLC) 555 nM | GI50 (SF-268 CNS) 744 nM | GI50 (SN12C renal) 953 nM | GI50 (HT29 colon) 512 nM | GI50 (NCI-H226 lung) 920 nM | GI50 (PC-3 prostate) 790 nM | GI50 (T-47D breast) 1190 nM | GI50 (OVCAR-4 ovarian) 676 nM | GI50 (MOLT-4 leukemia) 489 nM | GI50 (OVCAR-5 ovarian) 1830 nM | GI50 (RXF 393 renal) 946 nM | GI50 (TK-10 renal) 921 nM | GI50 (HOP-92 NSCLC) 590 nM | GI50 (HS 578T breast) 8.66 µM | GI50 (MDA-MB-435) 1580 nM | GI50 (U251 CNS) 470 nM | GI50 (CAKI-1 renal) 515 nM | GI50 (MCF7 breast) 725 nM | GI50 (HL-60(TB) leukemia) 622 nM | GI50 (SK-MEL-28 melanoma) 795 nM | GI50 (KM12 colon) 573 nM | GI50 (A498 renal) 2040 nM | GI50 (NCI-H522 lung) 1130 nM
> 100 µM: TGI (RPMI-8226 leukemia) | TGI (DU-145 prostate) | TGI (SF-295 CNS) | TGI (MDA-MB-231 breast) | TGI (SNB-19 CNS) | TGI (MALME-3M melanoma) | TGI (COLO 205 colon) | TGI (NCI-H23 lung) | TGI (HCT-15 colon) | TGI (SK-MEL-2 melanoma) | TGI (K-562 leukemia) | TGI (HCC-2998 colon) | TGI (IGROV1 ovarian) | TGI (SF-539 CNS) | TGI (EKVX NSCLC) | TGI (CCRF-CEM leukemia) | TGI (SW-620 colon) | TGI (A549 NSCLC) | TGI (SF-268 CNS) | TGI (SN12C renal) | TGI (HT29 colon) | TGI (PC-3 prostate) | TGI (T-47D breast) | TGI (OVCAR-4 ovarian) | TGI (OVCAR-5 ovarian) | TGI (TK-10 renal) | TGI (HOP-92 NSCLC) | TGI (HS 578T breast) | TGI (MDA-MB-435) | TGI (U251 CNS) | TGI (CAKI-1 renal) | TGI (MCF7 breast) | TGI (SK-MEL-28 melanoma) | TGI (KM12 colon)
> 30.6 µM: TGI (HOP-62 NSCLC)
> 35.5 µM: TGI (NCI/ADR-RES ovarian)
> 30.4 µM: TGI (SNB-75 CNS)
> 31.6 µM: TGI (NCI-H460 lung)
10.1 µM: TGI (UO-31 renal)
> 63.4 µM: TGI (NCI-H226 lung)
8.91 µM: TGI (A498 renal)
> 28.9 µM: TGI (SK-OV-3 ovarian)
> 40.5 µM: TGI (RXF 393 renal)
